# Data from patent US4201843A, “Process for manufacturing tylosin derivatives” (Sanraku Ocean Co., Ltd., priority 1975, dated 1980).
# Key:
# [1] = basicity of the compounds (alkalinity); format: physicochemical
# Excerpt: (§1) The physicochemical analysis and deterimations included elementary analysis, melting point, specific rotatory power, ultraviolet spectrum, infrared spectrum, magnetic nuclear resonance (NMR), C^13 -NMR, mass spectrum (chemical ionization), the release of organic acids under alkaline conditions (gas chromatographical detection), solubility in solvents, color development reaction, basicity of the compounds, appearance and crystalline form. The molecular weight was obtained as QM^+ (Quasi Molecular ion) by chemically-ionized mass spectra analysis.
# (§2) (2) the crystals obtained from the solvents in (13) were used for the tests in (1)-(12), and […]
# [2] = system: Staphylococcus aureus MS 8710; assay: minimum growth-inhibitory concentration; format: cell-based; details: MS8710; Staphylococcus aureus MS 8710, drug resistant strain
# Protocol: (§3) The antimicrobial spectra of new tylosin derivatives of this invention are shown in Table 2 by listing the minimum growth inhibitory concentrations (MIC, mcg/ml). […] The toxicity of these compounds was tested in animals by intravenous administration, and the LD50 values in mice are more than 400 mg/kg with all compounds. In therapeutical experiments with mice manually infected by Staphilococcus aureus SMITH, the ED50 values were less than 50 mg/kg (p.o.) with all said tylosin derivatives.
# (§4) The strains marked * in Table 2 are the drug resistant strains isolated from patients, namely, Staphilococcus aureus MS-9610 which is resistant to penicillin, tetracycline, erythromycin, leucomycin, spiramycin, josamycin and tylosin, Staphilococcus aureus MS-8710 which is resistant to penicillin, tetracycline, erythromycin, leucomycin and tylosin, and Streptococcus pyogenes MH 771 which is resistant to erythromycin, oleandomycin, leucomycin and tylosin.
# [3] = system: Staphylococcus aureus MS 9610; assay: minimum growth-inhibitory concentration; format: cell-based; details: MS9610; Staphylococcus aureus MS 9610, drug resistant strain
# Protocol: as §3, §4
# [4] = system: Mycobacterium smegmatis ATCC 607; assay: minimum growth-inhibitory concentration; format: cell-based; details: Mycolicibacterium smegmatis, ATCC607
# Protocol: as §3
# Micrococcus flavus I = assay: minimum growth-inhibitory concentration; format: cell-based
# Protocol: as §3
# [5] = system: Staphylococcus aureus SMITH; assay: minimum growth-inhibitory concentration; format: cell-based
# Protocol: as §3
# [6] = system: Escherichia coli (National Institute of Health); assay: minimum growth-inhibitory concentration; format: cell-based
# Protocol: as §3
# [7] = system: Bacillus megaterium NRRL B-938; assay: minimum growth-inhibitory concentration; format: cell-based; details: Priestia megaterium, NRRLB938
# Protocol: as §3
# [8] = system: Candida tropicalis IAM 4924; assay: minimum growth-inhibitory concentration; format: cell-based; details: IAM4924
# Protocol: as §3
# [9] = system: Bacillus subtilis ATCC 6633; assay: minimum growth-inhibitory concentration; format: cell-based; details: ATCC6633
# Protocol: as §3
# [10] = system: Staphylococcus aureus FAD209P; assay: minimum growth-inhibitory concentration; format: cell-based; details: read-out: minimum growth-inhibitory concentration (MIC)
# Protocol: as §3
# [11] = system: Pseudomonas fluorescens NIHJB 254; assay: minimum growth-inhibitory concentration; format: cell-based; details: NIHJB254
# Protocol: as §3
# Sarcina lutea ATCC 9341 = assay: minimum growth-inhibitory concentration; format: cell-based; details: Micrococcus luteus, ATCC9341
# Protocol: as §3
# [12] = system: Candida albicans IAM 4905; assay: minimum growth-inhibitory concentration; format: cell-based; details: IAM4905
# Protocol: as §3
# [13] = system: Bacillus cereus ATCC 9634; assay: minimum growth-inhibitory concentration; format: cell-based; details: ATCC9634
# Protocol: as §3
# [14] = system: Corynebacterium bovis 1810; assay: minimum growth-inhibitory concentration; format: cell-based
# Protocol: as §3
# [15] = system: Proteus morganii (The Institute for Infectious Diseases); assay: minimum growth-inhibitory concentration; format: cell-based; details: Morganella morganii
# Protocol: as §3
# drug resistant strains = assay: antimicrobial activity against drug resistant strains; format: cell-based; details: strains marked * in Table 2
# Excerpt: One of the particular advantages of the said tylosin derivatives over known macrolide antibiotics is their distinct antimicrobial activity against drug resistant bacteria.
# as §4
# solubility in solvents = format: physicochemical; details: for solubility in lower alcohols, ketones, ethers, esters, benzene and toluene: e.g. ethanol, acetone, ethyl ether, ethyl acetate
# Excerpt: as §1, §2
# [16] = system: Streptococcus pyogenes MH 771; assay: minimum growth-inhibitory concentration; format: cell-based; details: MH771, read-out: minimum growth-inhibitory concentration (MIC)
# Protocol: as §3
# (broth-dilution method)
# as §4
Compound,alkalinity [1],MIC [2],MIC [3],MIC [4],MIC (Micrococcus flavus I),MIC [5],MIC [6],MIC [7],MIC [8],MIC [9],MIC [10],MIC [11],MIC (Sarcina lutea ATCC 9341),MIC [12],MIC [13],MIC [14],MIC [15],antimicrobial activity against a wide range of drug resistant strains (drug resistant strains),solubility in acidic water (solubility in solvents),solubility in alkaline water (solubility in solvents),further results
"CCCC(=O)OC1C(C)OC(OC2C(C)OC(OC3C(CC=O)CC(C)C(=O)C=CC(C)=CC(COC4OC(C)C(O)C(OC)C4OC)C(CC)OC(=O)CC(OC(C)=O)C3C)C(O)C2N(C)C)CC1(C)O (stereo not drawn) [3-acetyl-4""-n-butyryltylosin]",alkaline compounds,15.6 µg/mL,250 µg/mL,1.95 µg/mL,0.25 µg/mL,0.25 µg/mL,250 µg/mL,0.49 µg/mL,> 250 µg/mL,0.49 µg/mL,0.25 µg/mL,> 250 µg/mL,< 0.12 µg/mL,> 250 µg/mL,0.98 µg/mL,0.5 µg/mL,> 250 µg/mL,particularly strong antimicrobial activity,soluble,hardly soluble,"solubility in lower alcohols, ketones, ethers, esters, benzene and toluene (solubility in solvents): soluble; solubility in n-hexane and petroleum ether (solubility in solvents): hardly soluble; solubility in neutral water (solubility in solvents): slightly soluble; MIC [16]: 15.6 µg/mL"
"CCCC(=O)OC1C(C)OC(OC2C(C)OC(OC3C(CC=O)CC(C)C(=O)/C=C/C(C)=C/C(COC4OC(C)C(O)C(OC)C4OC)C(CC)OC(=O)CC(O)C3C)C(O)C2N(C)C)CC1(C)O (stereo not drawn) [4""-n-butyryltylosin]",alkaline compounds,62.5 µg/mL,> 250 µg/mL,3.91 µg/mL,0.49 µg/mL,0.25 µg/mL,125 µg/mL,0.49 µg/mL,> 250 µg/mL,0.49 µg/mL,0.25 µg/mL,> 250 µg/mL,0.25 µg/mL,> 250 µg/mL,0.98 µg/mL,0.98 µg/mL,> 250 µg/mL,particularly strong antimicrobial activity,soluble,hardly soluble,"solubility in lower alcohols, ketones, ethers, esters, benzene and toluene (solubility in solvents): soluble; solubility in n-hexane and petroleum ether (solubility in solvents): hardly soluble; solubility in neutral water (solubility in solvents): slightly soluble; MIC [16]: 15.6 µg/mL"
"CCCC(=O)OC1C(C)OC(OC2C(C)OC(OC3C(CC=O)CC(C)C(=O)C=CC(C)=CC(COC4OC(C)C(O)C(OC)C4OC)C(CC)OC(=O)CC(OC(=O)CC)C3C)C(O)C2N(C)C)CC1(C)O (stereo not drawn) [3-propionyl-4""-n-butyryltylosin]",alkaline compounds,31.3 µg/mL,250 µg/mL,3.91 µg/mL,0.25 µg/mL,0.25 µg/mL,250 µg/mL,0.49 µg/mL,> 250 µg/mL,0.49 µg/mL,0.98 µg/mL,> 250 µg/mL,< 0.12 µg/mL,> 250 µg/mL,1.95 µg/mL,0.5 µg/mL,> 250 µg/mL,particularly strong antimicrobial activity,soluble,hardly soluble,"solubility in lower alcohols, ketones, ethers, esters, benzene and toluene (solubility in solvents): soluble; solubility in n-hexane and petroleum ether (solubility in solvents): hardly soluble; solubility in neutral water (solubility in solvents): slightly soluble; MIC [16]: 15.6 µg/mL"
"CCC(=O)OC1CC(=O)OC(CC)C(COC2OC(C)C(O)C(OC)C2OC)C=C(C)C=CC(=O)C(C)CC(CC=O)C(OC2OC(C)C(OC3CC(C)(O)C(OC(=O)CC(C)C)C(C)O3)C(N(C)C)C2O)C1C (stereo not drawn) [3-propionyl-4""-isovaleryltylosin]",alkaline compounds,15.6 µg/mL,62.5 µg/mL,3.91 µg/mL,0.49 µg/mL,1.95 µg/mL,250 µg/mL,0.49 µg/mL,> 250 µg/mL,0.49 µg/mL,0.49 µg/mL,> 250 µg/mL,0.25 µg/mL,> 250 µg/mL,0.98 µg/mL,1 µg/mL,> 250 µg/mL,particularly strong antimicrobial activity,soluble,hardly soluble,"solubility in lower alcohols, ketones, ethers, esters, benzene and toluene (solubility in solvents): soluble; solubility in n-hexane and petroleum ether (solubility in solvents): hardly soluble; solubility in neutral water (solubility in solvents): slightly soluble; MIC [16]: 3.91 µg/mL"
